Measurements as given in the supplement of paper PMC11061612.

How the values were obtained:
[1] = tested on: KMOE-2 (Acute Myeloid Leukemia); assay: Bliss excess, mean over the matrix (fraction); higher = more synergy
Summary of the method: (§1)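 Bliss excess equals the observed combination effect minus the expected value EA + EB − EA·EB, where EA and EB are the effects of each agent alone. Combination Emax is the second-highest inhibition within the matrix. Inhibition was scaled from CellTiter-Glo 2.0 luminescence, with 0 set by vehicle wells and 1 by blank wells, after 72 hours of two-drug dosing of cells plated in 1536-well plates.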

[2] = tested on: C-4-I (Cervical Carcinoma); assay: as above
Summary of the method: as §1

[3] = tested on: VA-ES-BJ (Other Solid Carcinomas); assay: as above
Summary of the method: as §1

[4] = tested on: NEC8 (Other Solid Carcinomas); assay: as above
Summary of the method: as §1

[5] = tested on: Ca9-22 (Head and Neck Carcinoma); assay: as above
Summary of the method: as §1

[6] = tested on: ACHN (Kidney Carcinoma); assay: as above
Summary of the method: as §1

[7] = tested on: OSC-20 (Oral Cavity Carcinoma); assay: as above
Summary of the method: as §1

[8] = tested on: NCI-H358 (Lung Adenocarcinoma); assay: as above
Summary of the method: as §1

[9] = tested on: NUGC-3 (Gastric Carcinoma); assay: as above
Summary of the method: as §1

[10] = tested on: Hs-766T (Pancreatic Carcinoma); assay: as above
Summary of the method: as §1

[11] = tested on: HSC-4 (Oral Cavity Carcinoma); assay: as above
Summary of the method: as §1

[12] = tested on: LU-65 (Non-Small Cell Lung Carcinoma); assay: as above
Summary of the method: as §1

[13] = tested on: EW-24 (Ewing's Sarcoma); assay: as above
Summary of the method: as §1

[14] = tested on: TGW (Neuroblastoma); assay: as above
Summary of the method: as §1

[15] = tested on: OVCAR-4 (Ovarian Carcinoma); assay: as above
Summary of the method: as §1

[16] = tested on: HGC-27 (Gastric Carcinoma); assay: as above
Summary of the method: as §1

[17] = tested on: PWR-1E (Non-Cancerous); assay: as above
Summary of the method: as §1

[18] = tested on: OE19 (Esophageal Adenocarcinoma); assay: as above
Summary of the method: as §1

[19] = tested on: KYSE-450 (Esophageal Squamous Cell Carcinoma); assay: as above
Summary of the method: as §1

[20] = tested on: EoL-1-cell (Acute Myeloid Leukemia); assay: combination Emax (second highest fraction inhibited in the dose matrix, 72 h); higher = more inhibition; extreme values may be limits of the assay
Summary of the method: as §1

SMILES	Bliss excess [1]	Bliss excess [2]	Bliss excess [3]	Bliss excess [4]	Bliss excess [5]	Bliss excess [6]	Bliss excess [7]	Bliss excess [8]	Bliss excess [9]	Bliss excess [10]	Bliss excess [11]	Bliss excess [12]	Bliss excess [13]	Bliss excess [14]	Bliss excess [15]	Bliss excess [16]	Bliss excess [17]	Bliss excess [18]	Bliss excess [19]	combination Emax [20]
COc1nnc2ccc(N3CCC(c4ccc(OCCN5CCN(C)C(=O)[C@H]5C)cc4)CC3)nn12 [AZD5153] + CC1(C)CCC(CN2CCN(c3ccc(C(=O)NS(=O)(=O)c4ccc(NCC5CCOCC5)c([N+](=O)[O-])c4)c(Oc4cnc5[nH]ccc5c4)c3)CC2)=C(c2ccc(Cl)cc2)C1 [Venetoclax] (first compound max 1 µM, 7x7, partner max 1 µM)	-0.0718	-0.05	-0.0486	-0.0661	-0.0321	-0.0499	-0.0554	-0.049	-0.0746	-0.0487	-0.0705	-0.072	-0.0962	0.0081	-0.0104	-0.0808	-0.0826	0.0029	-0.0404	1
COc1nnc2ccc(N3CCC(c4ccc(OCCN5CCN(C)C(=O)[C@H]5C)cc4)CC3)nn12 [AZD5153] + CCN(CCO)CCCOc1ccc2c(Nc3cc(CC(=O)Nc4cccc(F)c4)[nH]n3)ncnc2c1 [AZD2811] (first compound max 1 µM, 7x7, partner max 1 µM)	-0.0176	0.0165	-0.0342	-0.0072	-0.023	0.0017	-0.0785	-0.0479	-0.0372	-0.0263	-0.129	-0.0399	-0.0598	-0.109	-0.0568	-0.102	-0.0096	-0.0026	-0.0527	1
COc1nnc2ccc(N3CCC(c4ccc(OCCN5CCN(C)C(=O)[C@H]5C)cc4)CC3)nn12 [AZD5153] + C[C@@H]1COCCN1C2=NC(=NC(=C2)C3(CC3)[S@](=N)(=O)C)C4=C5C=CNC5=NC=C4 [AZD6738] (first compound max 1 µM, 7x7, partner max 10 µM)	0.0743	0.0654	0.0315	0.0124	-0.0481	0.0379	-0.0201	-0.0855	0.0398	-0.0137	-0.0215	-0.0292	-0.0044	-0.0601	0.0127	-0.0376	0.0015	-0.0416	0.0295	1
COc1nnc2ccc(N3CCC(c4ccc(OCCN5CCN(C)C(=O)[C@H]5C)cc4)CC3)nn12 [AZD5153] + Cc1c2c(nn1C)CSCc1cc(n(C)n1)CSc1cc(c3ccccc3c1)OCCCc1c(C(=O)O)n(C)c3c-2c(Cl)ccc13 [AZD5991] (first compound max 1 µM, 7x7, partner max 1 µM)	-0.0322	0.0867	-0.0174	0.0672	0.0049	-0.0565	-0.0091	-0.059	-0.0233	-0.0369	-0.101	-0.0445	-0.0044	-0.0523	-0.0152	-0.0471	0.0557	-0.0322	-0.0579	1
COc1nnc2ccc(N3CCC(c4ccc(OCCN5CCN(C)C(=O)[C@H]5C)cc4)CC3)nn12 [AZD5153] + Cn1cnc2c(F)c(Nc3ccc(Br)cc3Cl)c(C(=O)NOCCO)cc21 [Selumetinib] (first compound max 1 µM, 7x7, partner max 10 µM)	0.0402	0.0398	-0.0155	0.0165	0.0592	0.0033	-0.0816	-0.0409	-0.0071	-0.0627	-0.0246	0.031	-0.0748	-0.0392	-0.0214	-0.083	-0.0044	-0.02	0.025	1
Cc1c2c(nn1C)CSCc1cc(n(C)n1)CSc1cc(c3ccccc3c1)OCCCc1c(C(=O)O)n(C)c3c-2c(Cl)ccc13 [AZD5991] + C1CN(CCC1(C(=O)N[C@@H](CCO)C2=CC=C(C=C2)Cl)N)C3=NC=NC4=C3C=CN4 [Capivasertib] (first compound max 1 µM, 7x7, partner max 3 µM)	-0.002	0.0117	-0.0109	0.0812	-0.0261	0.0107	0.0036	-0.0179	-0.0051	-0.0994	-0.0327	-0.013	0.0392	0.0078	-0.0114	0.0232	-0.0077	-0.0273	-0.009	1
Cc1c2c(nn1C)CSCc1cc(n(C)n1)CSc1cc(c3ccccc3c1)OCCCc1c(C(=O)O)n(C)c3c-2c(Cl)ccc13 [AZD5991] + C=CCn1c(=O)c2cnc(Nc3ccc(N4CCN(C)CC4)cc3)nc2n1-c1cccc(C(C)(C)O)n1 [AZD1775] (first compound max 1 µM, partner max 1 µM)	0.0087	0.0267	0.0475	-0.0089	-0.032	-0.0085	-0.0115	-0.0047	-0.0088	0.0172	-0.0805	-0.118	0.0056	-0.0538	0.0117	-0.0061	-0.0124	-0.0082	0.025	1
Cc1c2c(nn1C)CSCc1cc(n(C)n1)CSc1cc(c3ccccc3c1)OCCCc1c(C(=O)O)n(C)c3c-2c(Cl)ccc13 [AZD5991] + CC1(C)CCC(CN2CCN(c3ccc(C(=O)NS(=O)(=O)c4ccc(NCC5CCOCC5)c([N+](=O)[O-])c4)c(Oc4cnc5[nH]ccc5c4)c3)CC2)=C(c2ccc(Cl)cc2)C1 [Venetoclax] (first compound max 1 µM, 7x7, partner max 1 µM)	0.0141	-0.0019	-0.0429	0.0396	-0.006	0.0156	-0.0059	-0.0289	-0.0125	-0.132	-0.0498	-0.0487	-0.0224	0.128	0.0108	0.1	0.0087	-0.0285	-0.0061	1
Cc1c2c(nn1C)CSCc1cc(n(C)n1)CSc1cc(c3ccccc3c1)OCCCc1c(C(=O)O)n(C)c3c-2c(Cl)ccc13 [AZD5991] + CCN(CCO)CCCOc1ccc2c(Nc3cc(CC(=O)Nc4cccc(F)c4)[nH]n3)ncnc2c1 [AZD2811] (first compound max 1 µM, 7x7, partner max 1 µM)	0.0471	0.0332	0.0703	0.0348	0.0626	0.0541	0.0042	-0.0392	0.0454	-0.0019	-0.0283	-0.0258	-0.0172	0.0418	0.0989	0.0635	0.151	-0.0098	0.0499	1
Cc1c2c(nn1C)CSCc1cc(n(C)n1)CSc1cc(c3ccccc3c1)OCCCc1c(C(=O)O)n(C)c3c-2c(Cl)ccc13 [AZD5991] + CN(C)CCCOc1ccc(-c2ccc3ncc4c(c3c2)n(C2CCOCC2)c(=O)n4C)cn1 [AZD0156] (first compound max 1 µM, 7x7, partner max 1 µM)	-0.0526	0.0063	-0.0027	0.0201	-0.0131	0.0086	0.0236	0.0096	0.0167	-0.0006	-0.0955	-0.001	0.0103	-0.0079	0.0076	0.0458	0.027	-0.0242	0.0134	0.999
Cc1c2c(nn1C)CSCc1cc(n(C)n1)CSc1cc(c3ccccc3c1)OCCCc1c(C(=O)O)n(C)c3c-2c(Cl)ccc13 [AZD5991] + Cc1cc2ncnn2cc1Nc1ncc2c(n1)n(C1CCOCC1)c(=O)n2C [AZD7648] (first compound max 1 µM, 7x7, partner max 10 µM)	-0.0085	-0.0135	-0.0239	-0.0056	0.0048	-0.0271	-0.0567	-0.0836	-0.0237	-0.0936	-0.0702	-0.105	-0.035	-0.03	-0.0073	-0.0131	-0.0363	-0.0645	-0.0321	1
Cc1c2c(nn1C)CSCc1cc(n(C)n1)CSc1cc(c3ccccc3c1)OCCCc1c(C(=O)O)n(C)c3c-2c(Cl)ccc13 [AZD5991] + Cn1cnc2c(F)c(Nc3ccc(Br)cc3Cl)c(C(=O)NOCCO)cc21 [Selumetinib] (first compound max 1 µM, 7x7, partner max 3 µM)	-0.0227	0.132	0.0207	0.0374	0.0185	0.0314	0.0146	0.0531	0.0106	-0.0859	-0.0175	0.03	-0.017	0.0029	0.0473	0.033	-0.0294	0.0051	0.0036	1
